The values that follow are results of earlier work, collected in patent US20070003642A1 (priority 2002, published 2007).

Consider `O=c1c(-c2ccc(O)cc2)coc2cc(O[C@@H]3O[C@H](CO)[C@@H](O)[C@H](O)[C@H]3O)ccc12` [daidzin], for which the solubility of daidzin result (background statement) is “about 3.3 mg/100 ml”.

On to isoflavones, for which the “solubility of isoflavones itself” value (stated as natural solubility, given as explanation) was “about 5 mg/L”.
